Test results from patent publication US20230181628A1 (priority 2020, published 2023).
Like-named read-outs stand apart in the source and are kept apart here.

Tests used:
[1] = Lewis acidity measuring method (1): reaction rate constant of reaction between CoTPP and oxygen in the presence of a Lewis acid; assay type: physicochemical
UM-UC-3 cells [2] = test system: UM-UC-3 cells
[3] = test system: various bladder cancer cells (UM-UC-3, UM-UC-2, EJ-1, BOY-12E, 5637); conditions: 120 minutes incubation
UM-UC-3 cells [4] = conditions: 500 ppm NaClO2 for 120 minutes
UM-UC-3 cells [5] = conditions: 500 ppm NaClO2 for 120 minutes, then 24 hours culture; PBS Control 14.6%
UM-UC-3 cells [6] = conditions: 500 ppm NaClO2 for 120 minutes, then 24 hours culture; vs PBS group
[7] = test system: bladder cancer clinical specimen-derived tumor
UM-UC-3 cells [8] = test system: UM-UC-3 cells; remark: listed apart in the source
[9] = test system: tongue cancer cells HSC-3; conditions: 60 minutes incubation, 48 hours culture
[10] = test system: oral cancer cells HO-1-u-1; conditions: 60 minutes incubation, 48 hours culture
colon cancer cells HT29 = conditions: 60 minutes incubation, 48 hours culture
colon cancer cells HT116 = conditions: 60 minutes incubation, 48 hours culture
[11] = test system: pancreatic cancer cells PK05; conditions: 48 hours
[12] = test system: pancreatic cancer cells PK10; conditions: 48 hours
[13] = concentration of 31 ppm or more

## CCCC[N+](CCCC)(CCCC)CCCC.F[P-](F)(F)(F)(F)F [tetrabutylammonium hexafluorophosphate]
[1]
  kcat (reaction rate constant of reaction between CoTPP and oxygen in the presence of a Lewis acid): >0.1 M^−2 s^−1

## benzalkonium chloride
[1]; acetonitrile, saturated O2, room temperature
  kcat (reaction rate constant of reaction between CoTPP and oxygen in the presence of a Lewis acid): 0.18 M^−2 s^−1

## sodium chlorite [NaClO2]
UM-UC-3 cells [2]; 500 ppm NaClO2, 30, 60, 90, 120 minutes
  cell proliferation vs contact time: inhibited in a time-dependent manner
UM-UC-3 cells [2]; 500 ppm NaClO2, 120 minutes incubation, then 48 hours culture
  inhibition of cell proliferation: more than 60%
[3]; then 48 hours culture
  proliferation inhibition vs concentration: concentration-dependent proliferation inhibition
[3]; at 500 ppm or more
  bladder cancer proliferation: almost completely inhibited
UM-UC-3 cells [4]; 0 hours after removal
  cell morphology: morphological changes
UM-UC-3 cells [4]; 24 hours after removal
  cell morphology: regression of cells
UM-UC-3 cells [4]; 24 hours after removal, magnified photomicrograph
  vesicle considered to be an apoptotic vesicle: formation of a vesicle
UM-UC-3 cells [5]
  apoptotic rate of UM-UC-3 cells: 43.8%
UM-UC-3 cells [6]
  fraction ratio in subG1 phase: significantly increased
[7]; tumor immersed in 500 ppm NaClO2, excised on day 27
  excised tumor photograph and tumor weight: increase in bladder tumors was inhibited
[7]; tumor immersed in 500 ppm NaClO2 for 120 minutes before transplantation, measured from day 12
  proliferation of bladder cancer tumors (tumor volume): significantly inhibited
UM-UC-3 cells [8]; 100 ppm NaClO2 (A100) vs 100 ppm NaClO2 + 100 ppm benzethonium chloride
  reactive oxygen species detected, compared with MA-T: equivalent to or more than that with MA-T
UM-UC-3 cells [8]; 500 ppm NaClO2 alone
  reactive oxygen production (fluorescence plate reader): remarkable reactive oxygen production
UM-UC-3 cells [8]; 500 ppm NaClO2 alone, final concentration
  fluorescence of active oxygen in cells (fluorescence microscopy): remarkable active oxygen production
UM-UC-3 cells [8]; over time
  production of reactive oxygen species on contact with cells (fluorescence intensity): produced reactive acid species in a time-dependent manner
[9]
  viability / proliferation of cancer cells: effect of inhibiting proliferation of cancer cells
[10]
  viability / proliferation of cancer cells: effect of inhibiting proliferation of cancer cells
Colon cancer cells HT29
  viability / proliferation of cancer cells: effect of inhibiting proliferation of cancer cells
Colon cancer cells HT116
  viability / proliferation of cancer cells: effect of inhibiting proliferation of cancer cells
[11]; 0-500 ppm
  proliferation inhibitory effect vs concentration (viability): concentration-dependent proliferation inhibitory effect
[11]; [13]
  pancreatic cancer cell proliferation: almost completely inhibited
[12]; 0-500 ppm
  proliferation inhibitory effect vs concentration (viability): concentration-dependent proliferation inhibitory effect
[12]; [13]
  pancreatic cancer cell proliferation: almost completely inhibited
